Results taken from publication PMC10412597, “Small molecule branched-chain ketoacid dehydrogenase kinase (BDK) inhibitors with opposing effects on BDK protein levels” (Nature Communications, 2023).

What was measured:
Parameters in all cases: Invitrogen kinase panel, per cent inhibition of kinase activity
Settings in all cases: 10 µM, inhibitor
[1] = target: ABL1 (Homo sapiens, UniProt P00519)
Protocol: (§1) To discover a potent and selective BDK inhibitor, a subset of the Pfizer compound collection was screened. […] Off target activity was assessed in both CEREP and kinase panels (Supplementary Tables 2, 3).

[2] = target: AKT1 (Homo sapiens, UniProt P31749)
Sequence of AKT1 (P31749 whole entry): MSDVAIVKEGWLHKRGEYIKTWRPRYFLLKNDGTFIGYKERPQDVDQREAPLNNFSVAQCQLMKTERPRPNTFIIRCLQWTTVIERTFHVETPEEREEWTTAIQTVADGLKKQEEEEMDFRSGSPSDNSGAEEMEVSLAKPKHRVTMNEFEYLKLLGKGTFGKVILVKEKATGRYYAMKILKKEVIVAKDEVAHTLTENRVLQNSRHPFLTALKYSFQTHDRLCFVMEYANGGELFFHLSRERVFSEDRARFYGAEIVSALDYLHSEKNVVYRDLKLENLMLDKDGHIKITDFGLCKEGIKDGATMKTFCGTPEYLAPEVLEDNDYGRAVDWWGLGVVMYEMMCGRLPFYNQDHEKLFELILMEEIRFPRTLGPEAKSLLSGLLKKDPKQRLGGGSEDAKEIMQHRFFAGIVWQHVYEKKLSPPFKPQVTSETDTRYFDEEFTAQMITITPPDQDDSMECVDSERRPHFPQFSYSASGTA
Protocol: as §1

[3] = target: CSNK1A1 (Homo sapiens, UniProt P48729)
Sequence of CSNK1A1 (P48729 whole entry): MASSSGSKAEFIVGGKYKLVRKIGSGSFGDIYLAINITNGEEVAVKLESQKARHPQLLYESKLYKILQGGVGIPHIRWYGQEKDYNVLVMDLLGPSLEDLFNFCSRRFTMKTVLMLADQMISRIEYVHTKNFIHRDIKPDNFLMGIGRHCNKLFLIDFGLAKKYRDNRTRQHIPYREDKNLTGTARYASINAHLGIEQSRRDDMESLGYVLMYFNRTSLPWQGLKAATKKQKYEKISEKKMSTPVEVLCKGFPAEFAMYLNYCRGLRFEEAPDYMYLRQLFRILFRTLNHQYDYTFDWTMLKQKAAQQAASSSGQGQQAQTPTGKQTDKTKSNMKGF
Protocol: as §1

[4] = target: FGFR1 (Homo sapiens, UniProt P11362)
Protocol: as §1

[5] = target: GSK3B (Homo sapiens, UniProt P49841)
Sequence of GSK3B (P49841 whole entry): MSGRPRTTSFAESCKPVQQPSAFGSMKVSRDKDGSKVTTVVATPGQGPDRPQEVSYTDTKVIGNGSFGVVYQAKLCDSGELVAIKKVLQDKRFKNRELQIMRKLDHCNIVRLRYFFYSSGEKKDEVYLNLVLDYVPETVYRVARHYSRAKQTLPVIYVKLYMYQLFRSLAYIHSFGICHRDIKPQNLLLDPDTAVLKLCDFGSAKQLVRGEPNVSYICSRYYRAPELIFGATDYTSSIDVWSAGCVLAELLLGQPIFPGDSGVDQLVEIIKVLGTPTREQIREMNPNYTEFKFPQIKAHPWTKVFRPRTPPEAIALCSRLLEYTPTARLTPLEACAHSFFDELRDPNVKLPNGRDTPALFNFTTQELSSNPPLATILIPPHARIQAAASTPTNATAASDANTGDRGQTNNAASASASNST
Protocol: as §1

[6] = target: HCK (Homo sapiens, UniProt P08631)
Protocol: as §1

[7] = target: INSR (Homo sapiens, UniProt P06213)
Sequence of INSR (P06213 whole entry): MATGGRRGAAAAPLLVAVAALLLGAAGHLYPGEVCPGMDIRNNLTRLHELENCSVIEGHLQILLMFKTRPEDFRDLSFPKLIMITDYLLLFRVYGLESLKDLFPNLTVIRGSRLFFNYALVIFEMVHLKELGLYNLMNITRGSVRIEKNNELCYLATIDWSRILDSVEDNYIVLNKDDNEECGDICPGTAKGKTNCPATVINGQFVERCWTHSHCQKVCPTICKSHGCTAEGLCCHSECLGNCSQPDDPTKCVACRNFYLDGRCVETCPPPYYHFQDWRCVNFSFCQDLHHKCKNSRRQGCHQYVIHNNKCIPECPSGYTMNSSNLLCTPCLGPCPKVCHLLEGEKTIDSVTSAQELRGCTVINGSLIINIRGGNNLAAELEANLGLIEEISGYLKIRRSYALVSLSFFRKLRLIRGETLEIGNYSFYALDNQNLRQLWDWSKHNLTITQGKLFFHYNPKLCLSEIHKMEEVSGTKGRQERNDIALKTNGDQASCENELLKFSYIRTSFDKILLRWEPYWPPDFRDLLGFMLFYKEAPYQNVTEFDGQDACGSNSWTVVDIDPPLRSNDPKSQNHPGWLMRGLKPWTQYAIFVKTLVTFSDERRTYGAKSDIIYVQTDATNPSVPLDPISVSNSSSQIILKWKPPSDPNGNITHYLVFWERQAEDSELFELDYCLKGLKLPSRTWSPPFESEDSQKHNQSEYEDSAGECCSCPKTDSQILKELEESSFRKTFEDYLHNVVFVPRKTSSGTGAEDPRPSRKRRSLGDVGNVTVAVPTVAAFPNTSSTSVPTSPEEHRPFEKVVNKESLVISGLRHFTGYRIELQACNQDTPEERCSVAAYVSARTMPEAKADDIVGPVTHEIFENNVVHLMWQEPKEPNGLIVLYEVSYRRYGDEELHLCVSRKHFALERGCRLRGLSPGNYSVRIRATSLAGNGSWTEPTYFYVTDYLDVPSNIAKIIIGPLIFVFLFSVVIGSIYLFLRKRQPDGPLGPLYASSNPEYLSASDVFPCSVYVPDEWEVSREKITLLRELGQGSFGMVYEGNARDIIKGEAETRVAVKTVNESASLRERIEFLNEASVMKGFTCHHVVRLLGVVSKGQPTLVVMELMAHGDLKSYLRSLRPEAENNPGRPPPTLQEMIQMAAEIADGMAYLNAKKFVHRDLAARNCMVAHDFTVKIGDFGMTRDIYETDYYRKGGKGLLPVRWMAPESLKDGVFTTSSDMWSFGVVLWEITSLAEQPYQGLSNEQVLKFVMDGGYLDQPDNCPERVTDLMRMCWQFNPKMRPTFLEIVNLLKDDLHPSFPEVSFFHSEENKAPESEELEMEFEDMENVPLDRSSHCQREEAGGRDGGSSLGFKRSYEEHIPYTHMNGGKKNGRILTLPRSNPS
Protocol: as §1

[8] = target: MAPK1 (Homo sapiens, UniProt P28482)
Sequence of MAPK1 (P28482 whole entry): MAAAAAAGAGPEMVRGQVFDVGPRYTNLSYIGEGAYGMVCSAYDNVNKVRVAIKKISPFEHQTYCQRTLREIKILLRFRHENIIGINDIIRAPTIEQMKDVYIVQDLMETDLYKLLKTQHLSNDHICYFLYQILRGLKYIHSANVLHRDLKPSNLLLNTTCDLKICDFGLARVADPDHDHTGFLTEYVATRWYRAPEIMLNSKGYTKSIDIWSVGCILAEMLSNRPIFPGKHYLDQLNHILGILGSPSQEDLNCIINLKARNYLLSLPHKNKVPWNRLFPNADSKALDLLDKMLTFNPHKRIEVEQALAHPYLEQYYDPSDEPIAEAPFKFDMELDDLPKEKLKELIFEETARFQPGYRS
Protocol: as §1

[9] = target: MARK1 (Homo sapiens, UniProt Q9P0L2)
Protocol: as §1

[10] = target: T1, MSK1 (Homo sapiens, UniProt O75582)
T1 construct: gene RPS6KA5
Protocol: as §1

[11] = target: T2, Mitogen-Activated Protein Kinase Kinase Kinase Kinase 4 (MAPK4K4) (Homo sapiens, UniProt O95819)
T2 construct: gene MAP4K4
Protocol: as §1

[12] = target: NTRK1 (Homo sapiens, UniProt P04629)
Sequence of NTRK1 (P04629 whole entry): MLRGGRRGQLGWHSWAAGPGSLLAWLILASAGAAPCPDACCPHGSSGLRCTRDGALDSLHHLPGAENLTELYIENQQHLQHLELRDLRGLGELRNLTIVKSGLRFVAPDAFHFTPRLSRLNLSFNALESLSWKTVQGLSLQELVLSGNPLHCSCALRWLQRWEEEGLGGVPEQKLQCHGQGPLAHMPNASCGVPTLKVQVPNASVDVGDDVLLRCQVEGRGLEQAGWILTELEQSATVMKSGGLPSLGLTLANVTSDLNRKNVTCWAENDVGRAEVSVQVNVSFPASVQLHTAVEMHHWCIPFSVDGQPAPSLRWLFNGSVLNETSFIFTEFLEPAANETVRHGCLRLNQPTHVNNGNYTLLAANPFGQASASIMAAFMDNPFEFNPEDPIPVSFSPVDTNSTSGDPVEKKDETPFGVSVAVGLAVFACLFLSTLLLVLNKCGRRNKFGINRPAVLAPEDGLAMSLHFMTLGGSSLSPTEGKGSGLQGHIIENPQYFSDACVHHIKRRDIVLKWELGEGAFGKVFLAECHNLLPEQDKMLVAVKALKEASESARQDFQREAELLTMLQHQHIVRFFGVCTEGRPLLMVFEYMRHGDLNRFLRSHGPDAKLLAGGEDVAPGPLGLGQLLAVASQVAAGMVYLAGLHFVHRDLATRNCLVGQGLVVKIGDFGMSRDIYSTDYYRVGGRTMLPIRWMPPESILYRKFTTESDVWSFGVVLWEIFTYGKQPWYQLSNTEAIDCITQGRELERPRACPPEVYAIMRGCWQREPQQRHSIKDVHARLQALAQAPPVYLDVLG
Protocol: as §1

[13] = target: NUAK1 (Homo sapiens, UniProt O60285)
Protocol: as §1

[14] = target: PIK3CD (Homo sapiens, UniProt O00329)
Protocol: as §1

[15] = target: PIM2 (Homo sapiens, UniProt Q9P1W9)
Protocol: as §1

[16] = target: PRKACA (Homo sapiens, UniProt P17612)
Protocol: as §1

[17] = target: T3, PRKCA (Homo sapiens, UniProt P17252)
T3 construct: 1 mM ATP
Protocol: as §1

[18] = target: SPHK1 (Homo sapiens, UniProt Q9NYA1)
Protocol: as §1

[19] = target: SRC (Homo sapiens, UniProt P12931)
Protocol: as §1

[20] = target: T4, mixed lineage kinase 1 (Homo sapiens, UniProt P80192)
T4 construct: gene MAP3K9
Protocol: as §1

Sequence of ABL1 (P00519 whole entry): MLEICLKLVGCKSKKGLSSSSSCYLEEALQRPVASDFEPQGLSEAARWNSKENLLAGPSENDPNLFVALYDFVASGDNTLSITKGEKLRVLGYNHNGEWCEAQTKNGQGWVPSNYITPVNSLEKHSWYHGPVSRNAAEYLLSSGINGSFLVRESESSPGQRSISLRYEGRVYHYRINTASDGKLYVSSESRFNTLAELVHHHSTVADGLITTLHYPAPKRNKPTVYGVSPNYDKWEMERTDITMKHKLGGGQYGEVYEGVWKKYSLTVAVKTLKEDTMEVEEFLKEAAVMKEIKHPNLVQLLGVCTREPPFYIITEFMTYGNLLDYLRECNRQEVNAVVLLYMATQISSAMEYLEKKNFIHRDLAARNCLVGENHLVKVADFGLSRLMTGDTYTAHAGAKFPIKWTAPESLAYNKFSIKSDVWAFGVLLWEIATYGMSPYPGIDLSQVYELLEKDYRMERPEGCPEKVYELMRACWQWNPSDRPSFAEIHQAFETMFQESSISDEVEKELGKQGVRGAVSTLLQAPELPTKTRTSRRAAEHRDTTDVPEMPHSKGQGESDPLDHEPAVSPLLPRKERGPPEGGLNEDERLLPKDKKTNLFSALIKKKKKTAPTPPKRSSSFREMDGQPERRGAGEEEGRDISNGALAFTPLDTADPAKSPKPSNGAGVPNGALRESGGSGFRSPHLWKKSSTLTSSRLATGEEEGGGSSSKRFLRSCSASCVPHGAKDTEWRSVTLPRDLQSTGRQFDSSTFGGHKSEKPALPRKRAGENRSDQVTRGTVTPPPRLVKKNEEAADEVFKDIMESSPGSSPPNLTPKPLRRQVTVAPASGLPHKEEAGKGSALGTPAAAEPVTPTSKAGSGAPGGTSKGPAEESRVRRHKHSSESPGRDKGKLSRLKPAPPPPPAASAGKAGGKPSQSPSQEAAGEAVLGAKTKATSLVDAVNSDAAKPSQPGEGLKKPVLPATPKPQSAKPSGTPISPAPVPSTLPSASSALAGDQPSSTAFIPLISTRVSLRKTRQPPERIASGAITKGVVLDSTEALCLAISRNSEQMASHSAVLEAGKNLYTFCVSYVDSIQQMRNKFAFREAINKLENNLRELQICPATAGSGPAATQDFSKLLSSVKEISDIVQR

O=C(O)c1sc2cc(F)sc2c1Cl [PF-07208254, 3-chloro-5-fluorothieno[3,2-b]thiophene-2-carboxylic acid]
ATP = 1 mM % Inhibition PF-07208254 [1]: -0.5%
ATP = Km % Inhibition PF-07208254 [1]: 9.0%
ATP = 1 mM % Inhibition PF-07208254 [2]: -0.8%
ATP = Km % Inhibition PF-07208254 [2]: 6.7%
ATP = 1 mM % Inhibition PF-07208254 [3]: -0.6%
ATP = Km % Inhibition PF-07208254 [3]: 9.2%
ATP = 1 mM % Inhibition PF-07208254 [4]: -0.5%
ATP = Km % Inhibition PF-07208254 [4]: -0.5%
ATP = 1 mM % Inhibition PF-07208254 [5]: 0.7%
ATP = Km % Inhibition PF-07208254 [5]: 9.7%
ATP = Km % Inhibition PF-07208254 [6]: 9.9%
ATP = 1 mM % Inhibition PF-07208254 [7]: 0.0%
ATP = Km % Inhibition PF-07208254 [7]: 3.1%
ATP = 1 mM % Inhibition PF-07208254 [8]: 2.8%
ATP = Km % Inhibition PF-07208254 [8]: 9.4%
ATP = 1 mM % Inhibition PF-07208254 [9]: 8.4%
ATP = Km % Inhibition PF-07208254 [9]: 2.1%
ATP = Km % Inhibition PF-07208254 [10]: 2.7%
ATP = 1 mM % Inhibition PF-07208254 [11]: -7.5%
ATP = Km % Inhibition PF-07208254 [11]: 11.9%
ATP = 1 mM % Inhibition PF-07208254 [12]: 5.8%
ATP = Km % Inhibition PF-07208254 [12]: 5.6%
ATP = Km % Inhibition PF-07208254 [13]: 10.3%
ATP = Km % Inhibition PF-07208254 [14]: 6.4%
ATP = 1 mM % Inhibition PF-07208254 [15]: -5.2%
ATP = Km % Inhibition PF-07208254 [15]: 22.3%
ATP = 1 mM % Inhibition PF-07208254 [16]: -2.4%
ATP = Km % Inhibition PF-07208254 [16]: 2.7%
ATP = Km % Inhibition PF-07208254 [17]: 3.8%
ATP = Km % Inhibition PF-07208254 [18]: -15.9%
ATP = 1 mM % Inhibition PF-07208254 [19]: -4.8%
ATP = Km % Inhibition PF-07208254 [19]: 5.6%
ATP = Km % Inhibition PF-07208254 [20]: 3.2%

CCC1(COc2ccc(-c3csc(-c4ccccc4C(=O)O)n3)cn2)CC1 [PF-07247685, 2-(4-{6-[(1-ethylcyclopropyl)methoxy]pyridin-3-yl}-1,3-thiazol-2-yl)benzoic acid]
ATP = 1 mM % Inhibition PF-07247685 [1]: 0.9%
ATP = Km % Inhibition PF-07247685 [1]: 5.1%
ATP = 1 mM % Inhibition PF-07247685 [2]: -0.8%
ATP = Km % Inhibition PF-07247685 [2]: 2.4%
ATP = 1 mM % Inhibition PF-07247685 [3]: 2.1%
ATP = Km % Inhibition PF-07247685 [3]: 3.1%
ATP = 1 mM % Inhibition PF-07247685 [4]: 2.1%
ATP = Km % Inhibition PF-07247685 [4]: 8.8%
ATP = 1 mM % Inhibition PF-07247685 [5]: 3.7%
ATP = Km % Inhibition PF-07247685 [5]: 11.0%
ATP = Km % Inhibition PF-07247685 [6]: 4.5%
ATP = 1 mM % Inhibition PF-07247685 [7]: -0.4%
ATP = Km % Inhibition PF-07247685 [7]: 3.4%
ATP = 1 mM % Inhibition PF-07247685 [8]: 2.4%
ATP = Km % Inhibition PF-07247685 [8]: 7.0%
ATP = 1 mM % Inhibition PF-07247685 [9]: 7.5%
ATP = Km % Inhibition PF-07247685 [9]: 4.3%
ATP = Km % Inhibition PF-07247685 [10]: -1.4%
ATP = 1 mM % Inhibition PF-07247685 [11]: 3.2%
ATP = Km % Inhibition PF-07247685 [11]: 25.5%
ATP = 1 mM % Inhibition PF-07247685 [12]: 10.0%
ATP = Km % Inhibition PF-07247685 [12]: 14.5%
ATP = Km % Inhibition PF-07247685 [13]: -18.2%
ATP = Km % Inhibition PF-07247685 [14]: -7.0%
ATP = 1 mM % Inhibition PF-07247685 [15]: 0.9%
ATP = Km % Inhibition PF-07247685 [15]: 0.1%
ATP = 1 mM % Inhibition PF-07247685 [16]: 0.3%
ATP = Km % Inhibition PF-07247685 [16]: 2.3%
ATP = Km % Inhibition PF-07247685 [17]: 14.8%
ATP = Km % Inhibition PF-07247685 [18]: -82.5%
ATP = 1 mM % Inhibition PF-07247685 [19]: -1.0%
ATP = Km % Inhibition PF-07247685 [19]: 17.3%
ATP = Km % Inhibition PF-07247685 [20]: 6.3%
